Data published in US7737180B2, “Use of neboglamine (CR 2249) as an antipsychotic and neuroprotective” (Rottapharm S.p.A., priority 2004, dated 2010).
Marks after values point to notes of the source that are not given here.

Experiments:
[1] = tested on: PCP-induced inhibition of the acoustic prestimulus (PPI); assay: Reversion of PCP-induced inhibition of the acoustic prestimulus (PPI) in the rat; format: in vivo
Source text: The first model used was the study of PCP-induced inhibition of the acoustic prestimulus (PPI) in the rat.
This phenomenon is known as “pre-pulse inhibition” (PPI). […] Such a deficit may be reproduced experimentally with drugs which induce psychotic phenomena, such dopamine agonists and NMDA antagonists.
The method is based on that reported by Swerdlow et al. [J. Pharmacol. Exp. Ther. 256 530-536 (1991)] with slight modifications. An acrylic cylinder is used which is equipped with a piezoelectric sensor mounted under the cylinder which detects and transduces movements of the cylinder. A background noise of 60 dB is provided and subsequently two acoustic stimuli separated by 500 ms, the first of which is 20 dB above the background noise, while the second (startle stimulus) is 120 dB for a duration of 40 ms. The session of 30 trials at 30 second intervals with an overall duration of approx. 15 minutes involved subjecting the animal randomly to a startle stimulus either isolated or preceded by the low intensity stimulus. PPI was calculated as a percentage reduction in the level of startle in the presence of the prestimulus compared to that without the acoustic prestimulus. Rats weighing approx. 250 g were used, which were treated intraperitoneally (i.p.) with the products under investigation 15 minutes prior to subcutaneous (s.c.) administration of 3 mg/kg of PCP and 30 minutes before the beginning of the experiment.

[2] = tested on: PCP-induced depression (swimming test); assay: Reversion of PCP-induced depression in the mouse swimming test; format: in vivo
Source text: An animal model of depression (which may be considered as a negative symptom of schizophrenia) was then used to study the activity of neboglamine on the PCP-induced depressive effects in the mouse using the swimming test according to Porsolt et al. [Arch. Int. Pharmadyn. 229, 327-336 (1977)].
The test involves inducing a state of depression in the animal, which is forced to swim in a glass cylinder from which it cannot escape. The state of depression was accentuated by 14 days' pre-treatment with a daily 10 mg/kg (s.c.) injection of PCP. On the 15th day, the animals were additionally pretreated (i.p.) with physiological solution or neboglamine 30 minutes before the beginning of the test. The duration of immobility (sign of depression) in seconds was evaluated during the experiment of an overall duration of 360 seconds. The results obtained in this manner, calculated between the 3rd and 6th minute of the experiment, i.e. for a period of […], are shown in Table 2.

[3] = tested on: NMDA-evoked 3H-dopamine release in slices of rat prefrontal cortex; assay: PCP-induced blocking of NMDA-evoked 3H-dopamine release in slices of rat frontal cortex; format: cell-based
Protocol: Neboglamine's ability to reverse the effect of PCP at a neuronal level was also evaluated in an in vitro test carried out on slices of rat frontal cortex.
The method involved preparing 0.4 mm thick cortical slices, incubating them for 20 minutes with ^3H-dopamine in physiological solution in the presence of 0.1 μM 6-nitroquipazine and 0.1 μM nisoxetine (selective serotonin and noradrenaline reuptake inhibitors), aerated with 95% O2+5% CO2 at 37° C., which, after appropriate washing with artificial cerebrospinal fluid (aCSF), were superperfused for 30 minutes with aCFS at a rate of 1 ml/minute to equilibrate the system. Then, PCP and neboglamine were added at the stated concentrations to the perfusion liquid for the entire duration of the experiment, while, after 45 minutes, NMDA (100 μM) stimulation was provided for 5 minutes. Another four 5 minute fractions of eluate were then collected and their radioactivity determined.
The effect of the drugs was evaluated by calculating the ratio between the percentage radioactivity present in the effluent fraction corresponding to the maximum effect and that in the first effluent fraction collected.

[4] = tested on: hippocampal ischaemia by bilateral occlusion of the carotid arteries; assay: Ischaemia induced in the gerbil by bilateral occlusion of the carotid arteries (hippocampal neuroprotection); format: in vivo; conditions: for area (mm2): mean ± SD; for % mortality: ischaemia group 28.57
Protocol: It was accordingly decided to investigate the possible neuroprotective effects of neboglamine and CR 2863 on a model of hippocampal ischaemia brought about in the gerbil by bilateral occlusion of the carotid arteries.
In brief, halothane-anaesthetised animals are subjected to bilateral occlusion of the carotid arteries for 5 minutes. After 7 days, the animals are sacrificed, the brain is removed, deep frozen and 10 μm sections from the hippocampal area are prepared which are stained with cresyl violet. A quantitative determination (in mm^2) of the area occupied by […] pyramidal neurons is then performed by means of an image analyser. The type of hippocampal neurodegeneration arising from this model of ischaemia involves a significant reduction in the area of the neuronal nuclei. The drugs were administered intraperitoneally (i.p.) 1 h before the ischaemia.

Which results are given for `c1ccc(C2(N3CCCCC3)CCCCC2)cc1` [PCP, Phenylcyclidine]?
PPI (% inhibition) ([1]; rat, PCP only group, 3 mg/kg s.c., control 55%): 20%; increase of duration of immobility relative to untreated control group ([2]; 2 weeks' chronic PCP): approx. 3 times; Immobility ([2]; PCP only group, 14 days 10 mg/kg s.c. daily, control 48): 130 s; % increase in NMDA-evoked 3H-dopamine release ([3]; NMDA 100 μM + PCP 0.1 μM): 64%

How did the “% increase in NMDA-evoked 3H-dopamine release” value ([3]; Control: NMDA 100 μM alone) turn out when `CN[C@H](CC(=O)O)C(=O)O` [NMDA] was run?
The value was 120%.

Which results are given for `CC1(C)CCC(N)CC1` [CR 2863, 4,4-dimethylcyclohexylamine]?
times less active than the parent (neboglamine) ([1]; rat PPI model): approx. 3 times; PPI (% inhibition) ([1]; rat, drug 10 mg/kg i.p. 15 min before PCP 3 mg/kg s.c., n=10): 38* %; % inhibition by PCP ([1]; rat, drug 10 mg/kg i.p. + PCP, calculated by formula): 51.4%; % protection ([4]; 4 mg/kg i.p.): 24.88%; area (mm2) ([4]; 4 mg/kg i.p. 1 h before ischaemia, sham 22.39, ischaemia 5.55): 9.74 ± 0.9*^+ mm2; % mortality ([4]; 4 mg/kg i.p.): 11.11%; % protection ([4]; 8 mg/kg i.p.): 39.25%; area (mm2) ([4]; 8 mg/kg i.p. 1 h before ischaemia): 12.16 ± 5.49 mm2; % mortality ([4]; 8 mg/kg i.p.): 5.88%; % protection ([4]; 16 mg/kg i.p.): 57.82%; area (mm2) ([4]; 16 mg/kg i.p. 1 h before ischaemia): 15.23 ± 5.49*^+ mm2
